Like-named read-outs stand apart in the source and are kept apart here. Numbered stars: 1 amine (or outer) side, 2 acyl side, 3 side chain; on linkers, the order of the positions; unused ones are H or OH. Bridge positions count the residues as written; N and C are the ends. Square brackets hold non-standard residues; d marks the D form. Peptide text beside a SMILES is read from it. * marks the point of attachment. TtdsdLys(DOTA)NH2 = NC(=O)[C@@H](CCCCNC(=O)CN1CCN(CC(=O)O)CCN(CC(=O)O)CCN(CC(=O)O)CC1)NC(=O)CCC(=O)NCCCOCCOCCOCCCN*; DOTA = O=C(O)CN1CCN(CC(=O)O)CCN(CC(=O)*)CCN(CC(=O)O)CC1; Biotin = O=C1N[C@H]2[C@H](CS[C@H]2CCCCC(=O)*)N1; Tyr(3-I) = N[C@@H](Cc1ccc(O)c(I)c1)C(=O)O; Phe(4-Cl) = N[C@@H](Cc1ccc(Cl)cc1)C(=O)O; Phe(4-Me) = Cc1ccc(C[C@H](N)C(=O)O)cc1; Arg(Me) = CNC(=N)NCCC[C@H](N)C(=O)O; hArg = N=C(N)NCCCC[C@H](N)C(=O)O; 2Pal = N[C@@H](Cc1ccccn1)C(=O)O; X1 = O=C(CC1CCN([*:1])CC1)[*:2]; Cit = NC(=O)NCCC[C@H](N)C(=O)O; Lys(Me) = CNCCCC[C@H](N)C(=O)O; Tle = CC(C)(C)[C@H](N)C(=O)O; Aib = CC(C)(N)C(=O)O
Columns and labels:
[1] = target: T1, Fc-fusion protein of human PSMA (hPSMA-Fc) (Homo sapiens, UniProt Q04609); assay: Surface plasmon resonance assay (Biacore T200, single cycle kinetic); type: binding; details: hPSMA-Fc, 25° C., read-out: pKD CAT (converted)
T1 construct: purchased Acro Biosystems PSA-H5264
T1 sequence (Q04609 44-750 limits assumed): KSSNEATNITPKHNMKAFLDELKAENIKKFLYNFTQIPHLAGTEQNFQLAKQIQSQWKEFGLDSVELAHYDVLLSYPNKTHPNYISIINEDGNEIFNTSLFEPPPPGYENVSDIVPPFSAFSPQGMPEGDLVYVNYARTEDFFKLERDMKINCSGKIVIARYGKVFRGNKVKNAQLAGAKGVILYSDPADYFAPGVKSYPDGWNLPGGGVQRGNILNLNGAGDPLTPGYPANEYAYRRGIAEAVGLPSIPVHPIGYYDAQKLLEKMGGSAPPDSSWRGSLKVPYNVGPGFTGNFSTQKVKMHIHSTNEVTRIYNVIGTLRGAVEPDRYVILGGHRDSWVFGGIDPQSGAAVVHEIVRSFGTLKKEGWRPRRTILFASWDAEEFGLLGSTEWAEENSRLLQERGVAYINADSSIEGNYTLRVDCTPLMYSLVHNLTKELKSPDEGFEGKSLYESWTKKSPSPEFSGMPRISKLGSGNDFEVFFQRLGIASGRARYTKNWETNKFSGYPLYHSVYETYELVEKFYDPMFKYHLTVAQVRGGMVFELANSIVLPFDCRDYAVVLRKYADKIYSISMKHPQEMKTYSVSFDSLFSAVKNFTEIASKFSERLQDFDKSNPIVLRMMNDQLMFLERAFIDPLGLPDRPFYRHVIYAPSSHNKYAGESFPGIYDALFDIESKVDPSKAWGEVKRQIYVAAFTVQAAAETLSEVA
Procedure, shortened: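 hPSMA-Fc was captured (~1000 RU) on an Fc-binding-peptide CM5 chip, and compounds were run in single cycle kinetic mode at 25° C in HBST with 0.1% DMSO. Double-blank-corrected sensorgrams were fitted to a 1:1 Langmuir model to give KD, reported as pKD.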

[2] = target: T2, PSMA-expressing C4-2 cells (Homo sapiens, UniProt Q04609); assay: FACS binding assay (competition with 50 nM PSM-0183); details: read-out: pIC50 [C4-2] CAT (converted)
T2 construct: PSMA-expressing C4-2 cells (ATCC, Cat. No. CRL-3314) were cultured in RPMI-1640; host or cells: C4-2 cells
T2 sequence (Q04609 whole entry): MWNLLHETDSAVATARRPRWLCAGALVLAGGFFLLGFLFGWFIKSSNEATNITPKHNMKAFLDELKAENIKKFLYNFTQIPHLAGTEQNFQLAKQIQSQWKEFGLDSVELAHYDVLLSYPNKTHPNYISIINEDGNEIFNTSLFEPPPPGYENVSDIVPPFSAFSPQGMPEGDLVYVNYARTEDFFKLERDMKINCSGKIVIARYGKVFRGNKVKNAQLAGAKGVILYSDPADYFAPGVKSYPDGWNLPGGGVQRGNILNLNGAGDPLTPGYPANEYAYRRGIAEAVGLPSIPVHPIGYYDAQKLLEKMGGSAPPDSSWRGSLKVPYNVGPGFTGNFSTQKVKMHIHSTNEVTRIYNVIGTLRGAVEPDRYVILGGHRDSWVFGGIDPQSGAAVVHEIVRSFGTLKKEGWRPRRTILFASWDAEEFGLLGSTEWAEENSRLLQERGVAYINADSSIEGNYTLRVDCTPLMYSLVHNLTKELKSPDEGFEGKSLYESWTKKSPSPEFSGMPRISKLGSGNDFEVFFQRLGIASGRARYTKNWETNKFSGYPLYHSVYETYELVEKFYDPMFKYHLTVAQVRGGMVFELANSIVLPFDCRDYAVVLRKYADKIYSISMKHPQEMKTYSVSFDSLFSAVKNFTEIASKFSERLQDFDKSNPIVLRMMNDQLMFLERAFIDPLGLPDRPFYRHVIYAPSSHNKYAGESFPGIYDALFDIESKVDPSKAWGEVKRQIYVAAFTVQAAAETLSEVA
Procedure, shortened: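 C4-2 cells were incubated 1 h at 4 °C with 50 nM AF488-labelled peptide PSM-0183 plus increasing test compound concentrations, then washed twice in ice-cold buffer. Median fluorescence in the AF488 channel was read by flow cytometry. IC50/pIC50 was derived by 4PL fitting of MFI versus concentration.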

[3] = FACS binding, PSMA-expressing C4-2 cells, pIC50 category
[4] = pKD category for PSMA SPR activity assay
[5] = pIC50 category of FACS binding, C4-2 cells

Compound | Kd ([1]; PSMA SPR assay, pKD category) | IC50 [2, 3] | Kd [1, 4] | IC50 [2, 5]
CC(=O)N[C@H](C(=O)NC(C)(C)C(=O)N[C@@H](Cc1ccccc1)C(=O)N[C@H]1CSSC[C@@H](C(=O)N[C@H](C(=O)N[C@H](C(=O)N[C@@H](CC(=O)O)C(=O)NCCCOCCOCCOCCCNC(=O)CCC(=O)N[C@H](CCCCNC(=O)CN2CCN(CC(=O)O)CCN(CC(=O)O)CCN(CC(=O)O)CC2)C(N)=O)[C@@H](C)O)C(C)(C)C)NC(=O)[C@H](CC(N)=O)NC(=O)[C@H](C)NC(=O)[C@H](CCCNC(=N)N)NC(=O)[C@H](CCCCN)NC1=O)[C@@H](C)O [PSM-0295, Ac-Thr-Aib-Phe-[Cys-Lys-Arg-Ala-Asn-Cys]-Tle-Thr-Asp-Ttds-lys(DOTA)-NH2] (Ac-T[Aib]FCKRANC[Tle]TD-{TtdsdLys(DOTA)NH2}; disulfide 4-9) | < 12.6 nM | < 200 nM |  | 
CC(=O)N[C@H](C(=O)NC(C)(C)C(=O)N[C@@H](Cc1ccc(C)cc1)C(=O)N[C@H]1CSSC[C@@H](C(=O)N[C@H](C(=O)N[C@H](C(N)=O)[C@@H](C)O)C(C)(C)C)NC(=O)[C@H](CC(N)=O)NC(=O)C(C)(C)NC(=O)[C@H](CCCNC(=N)N)NC(=O)[C@H](CCCCN)NC1=O)[C@@H](C)O [PSM-0372, Ac-Thr-Aib-Pmf-[Cys-Lys-Arg-Aib-Asn-Cys]-Tle-Thr-NH2] (Ac-T[Aib][Phe(4-Me)]CKR[Aib]NC[Tle]T-NH2; disulfide 4-9) |  |  | < 12.6 nM | < 200 nM
C[C@@H](O)[C@H](NC(=O)[C@@H](NC(=O)[C@@H]1CSSC[C@H](NC(=O)[C@H](Cc2ccccn2)NC(=O)C(C)(C)NC(=O)[C@@H](NC(=O)CC2CCN(C(=O)CN3CCN(CC(=O)O)CCN(CC(=O)O)CCN(CC(=O)O)CC3)CC2)[C@@H](C)O)C(=O)N[C@@H](CCCCN)C(=O)N[C@@H](CCCNC(N)=O)C(=O)NC(C)(C)C(=O)N[C@@H](CC(N)=O)C(=O)N1)C(C)(C)C)C(N)=O [PSM-0512, DOTA-Cmp-Thr-Aib-Opa-[Cys-Lys-Cit-Aib-Asn-Cys]-Tle-Thr-NH2] ({DOTA}-[X1]T[Aib][2Pal]CK[Cit][Aib]NC[Tle]T-NH2; disulfide 5-10) |  |  | 12.6 to 126 nM | 200 to 1260 nM
CCCC[C@H](NC(=O)[C@@H]1CSSC[C@H](NC(=O)[C@H](Cc2ccccc2)NC(=O)[C@H](C)NC(=O)[C@@H](NC(C)=O)[C@@H](C)O)C(=O)N[C@@H](CCCCN)C(=O)N[C@@H](CCCNC(=N)N)C(=O)N[C@@H](C)C(=O)N[C@@H](CC(N)=O)C(=O)N1)C(=O)N[C@H](C(=O)N[C@H](CC(=O)O)C(N)=O)[C@@H](C)O (single isomer, unassigned) [PSM-0436, Ac-Thr-Ala-phe-[Cys-Lys-Arg-Ala-Asn-Cys]-Nle-Thr-Asp-NH2] |  |  | > 501 nM | > 3160 nM
CNCCCC[C@@H]1NC(=O)[C@@H](NC(=O)[C@H](Cc2ccc(O)c(I)c2)NC(=O)C(C)(C)NC(=O)[C@@H](NC(C)=O)[C@@H](C)O)CSSC[C@@H](C(=O)N[C@H](C(=O)N[C@H](C(N)=O)[C@@H](C)O)C(C)(C)C)NC(=O)[C@H](CC(N)=O)NC(=O)C(C)(C)NC(=O)[C@H](CCCNC(=N)NC)NC1=O [PSM-0387, Ac-Thr-Aib-Miy-[Cys-Lys(Me)-Arg(Me)-Aib-Asn-Cys]-Tle-Thr-NH2] (Ac-T[Aib][Tyr(3-I)]C[Lys(Me)][Arg(Me)][Aib]NC[Tle]T-NH2; disulfide 4-9) |  |  | > 501 nM | > 3160 nM
C[C@@H](O)[C@H](NC(=O)[C@@H](NC(=O)[C@@H]1CSSC[C@H](NC(=O)[C@H](Cc2ccc(Cl)cc2)NC(=O)C(C)(C)NC(=O)[C@@H](NC(=O)CC2CCN(C(=O)CN3CCN(CC(=O)O)CCN(CC(=O)O)CCN(CC(=O)O)CC3)CC2)[C@@H](C)O)C(=O)N[C@@H](CCCCN)C(=O)N[C@@H](CCCCNC(=N)N)C(=O)NC(C)(C)C(=O)N[C@@H](CC(N)=O)C(=O)N1)C(C)(C)C)C(N)=O [PSM-0317, DOTA-Cmp-Thr-Aib-Pcf-[Cys-Lys-Har-Aib-Asn-Cys]-Tle-Thr-NH2] ({DOTA}-[X1]T[Aib][Phe(4-Cl)]CK[hArg][Aib]NC[Tle]T-NH2; disulfide 5-10) | < 12.6 nM | < 200 nM |  | 
C[C@@H](O)[C@H](NC(=O)[C@@H](NC(=O)[C@@H]1CSSC[C@H](NC(=O)[C@H](Cc2ccc(Cl)cc2)NC(=O)C(C)(C)NC(=O)[C@@H](NC(=O)CC2CCN(C(=O)CN3CCN(CC(=O)O)CCN(CC(=O)O)CCN(CC(=O)O)CC3)CC2)[C@@H](C)O)C(=O)N[C@@H](CCCCNC(=O)CCCC[C@@H]2SC[C@@H]3NC(=O)N[C@@H]32)C(=O)N[C@@H](CCCNC(=N)N)C(=O)NC(C)(C)C(=O)N[C@@H](CC(N)=O)C(=O)N1)C(C)(C)C)C(N)=O [PSM-0490, DOTA-Cmp-Thr-Aib-Pcf-[Cys-Lys (Bio)-Arg-Aib-Asn-Cys]-Tle-Thr-NH2] ({DOTA}-[X1]T[Aib][Phe(4-Cl)]CK(Biotin)R[Aib]NC[Tle]T-NH2; disulfide 5-10) |  |  | < 12.6 nM | 200 to 1260 nM
